Reference: BindingDB's records for PubMed 36812150 (China Pharmaceutical University, 2023)

target: Sucrase-isomaltase, intestinal (Rattus norvegicus, UniProt P23739); test: Binding affinity to sucrase in rat small intestinal brush border membrane vesicles assessed as inhibition constant using sucrose as substrate incubated for 30 mins by glucose-oxidase method
Sequence (P23739 1-1013 limits assumed): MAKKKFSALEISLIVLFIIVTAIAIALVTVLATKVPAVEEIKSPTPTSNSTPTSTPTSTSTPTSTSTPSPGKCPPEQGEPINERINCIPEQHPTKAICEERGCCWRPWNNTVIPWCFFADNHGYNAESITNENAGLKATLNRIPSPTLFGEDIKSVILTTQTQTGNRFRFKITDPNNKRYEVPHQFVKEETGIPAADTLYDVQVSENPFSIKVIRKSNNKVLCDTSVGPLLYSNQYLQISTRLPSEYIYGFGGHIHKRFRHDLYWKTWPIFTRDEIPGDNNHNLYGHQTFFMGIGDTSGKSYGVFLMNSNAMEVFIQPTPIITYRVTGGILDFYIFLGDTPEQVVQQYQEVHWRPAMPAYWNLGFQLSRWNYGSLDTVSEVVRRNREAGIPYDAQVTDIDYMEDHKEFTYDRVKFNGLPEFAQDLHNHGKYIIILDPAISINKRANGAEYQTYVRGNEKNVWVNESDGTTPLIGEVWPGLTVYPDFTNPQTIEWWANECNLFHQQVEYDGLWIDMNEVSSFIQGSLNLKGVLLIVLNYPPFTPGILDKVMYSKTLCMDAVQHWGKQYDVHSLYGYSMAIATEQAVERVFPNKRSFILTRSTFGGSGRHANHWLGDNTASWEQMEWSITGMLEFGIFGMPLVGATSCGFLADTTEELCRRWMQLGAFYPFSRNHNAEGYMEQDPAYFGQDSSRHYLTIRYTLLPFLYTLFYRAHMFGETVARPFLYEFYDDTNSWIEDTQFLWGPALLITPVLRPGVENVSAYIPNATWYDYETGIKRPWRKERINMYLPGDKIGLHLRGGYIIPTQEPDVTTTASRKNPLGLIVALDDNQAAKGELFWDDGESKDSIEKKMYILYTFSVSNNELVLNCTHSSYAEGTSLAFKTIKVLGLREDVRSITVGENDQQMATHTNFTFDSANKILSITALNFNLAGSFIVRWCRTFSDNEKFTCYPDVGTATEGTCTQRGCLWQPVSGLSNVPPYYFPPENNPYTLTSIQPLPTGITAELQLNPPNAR
Sequence (P23739 1014-1841 limits assumed): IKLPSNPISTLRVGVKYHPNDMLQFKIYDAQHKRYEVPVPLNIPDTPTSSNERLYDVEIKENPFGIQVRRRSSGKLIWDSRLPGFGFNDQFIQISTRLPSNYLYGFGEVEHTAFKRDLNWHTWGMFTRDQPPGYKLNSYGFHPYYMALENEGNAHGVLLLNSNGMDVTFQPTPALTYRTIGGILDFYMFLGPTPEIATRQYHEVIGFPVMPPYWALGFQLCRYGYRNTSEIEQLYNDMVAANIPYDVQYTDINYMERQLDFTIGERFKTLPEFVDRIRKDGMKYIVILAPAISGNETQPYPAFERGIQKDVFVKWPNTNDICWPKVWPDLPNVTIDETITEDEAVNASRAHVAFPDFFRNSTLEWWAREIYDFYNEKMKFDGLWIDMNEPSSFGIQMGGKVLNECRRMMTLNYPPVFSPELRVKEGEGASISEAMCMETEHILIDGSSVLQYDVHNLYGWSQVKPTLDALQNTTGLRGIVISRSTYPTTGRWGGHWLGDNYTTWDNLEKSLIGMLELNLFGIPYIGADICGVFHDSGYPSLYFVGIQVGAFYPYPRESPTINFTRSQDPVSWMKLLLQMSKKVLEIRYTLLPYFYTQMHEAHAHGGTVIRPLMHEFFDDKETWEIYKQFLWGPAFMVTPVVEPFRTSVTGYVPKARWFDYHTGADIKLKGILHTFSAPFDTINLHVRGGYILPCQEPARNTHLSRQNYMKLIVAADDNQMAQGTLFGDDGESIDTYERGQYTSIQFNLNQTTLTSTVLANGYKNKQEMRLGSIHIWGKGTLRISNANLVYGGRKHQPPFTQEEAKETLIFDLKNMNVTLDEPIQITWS

Ki [nM]	Compound
310	OC[C@@H]1[C@@H](O)[C@H](O)C[S@+]1C[C@@H](O)[C@H]1OC(c2ccccc2)OC[C@H]1O (stereo not given in full)
210	OC[C@@H]1[C@@H](O)[C@H](O)C[S@+]1C[C@@H](O)[C@H]1OC(c2ccccc2Cl)OC[C@H]1O (stereo not given in full)
240	OC[C@@H]1[C@@H](O)[C@H](O)C[S@+]1C[C@@H](O)[C@H]1OC(c2ccccc2F)OC[C@H]1O (stereo not given in full)
160	O=[N+]([O-])c1ccccc1C1OC[C@@H](O)[C@@H]([C@H](O)C[S@@+]2C[C@@H](O)[C@H](O)[C@H]2CO)O1 (stereo not given in full)
190	OC[C@@H]1[C@@H](O)[C@H](O)C[S@+]1C[C@@H](O)[C@H]1OC(c2ccccc2C(F)(F)F)OC[C@H]1O (stereo not given in full)
